Source: patent US20210030700A1, “COMPOSITION FOR PREVENTING AND TREATMENT OF SPINAL CORD INJURY” (NEUROBIOGEN CO.,LTD, priority 2018, published 2021)

Assays:
Assay type in all cases: in vivo, Sprague-Dawley rats
[1] = tested on: spinal cord-injured rats and normal rats; assay: Pain response evaluation using a dynamic plantar test
Experimental: The animal models of spinal cord injury herein used were adult male Sprague-Dawley rats weighing 180 to 200 g, and the rats were anesthetized by intraperitoneal injection of ketamine. Laminectomy was conducted on the T9 portion to expose the spinal cord, the spinal cord was compressed for 10 seconds using a dedicated forceps (self-closed forceps, Germany) to induce spinal cord injury, and then the muscles and skin were sutured. […]
A motor function test was performed 10 times in total weekly for 10 weeks after spinal cord injury, and the recovery of hindlimb function in the animals was evaluated using the Basso-Beattie-Bresnahan (BBB) motor score. […] In the first recovery phase, the degree of the joint movement and whether or not the soles contact the floor was checked, in the second recovery phase, the degree of recovery of weighted gait was monitored, and in the final stage, the balance of the gait and the recovery of the tail were mainly observed. […] At this time, the force applied when the sole withdrawal occurred due to pain was measured.
A pain relief degree was measured using a pain response evaluation based on a dynamic plantar test after administration of KDS2010 to spinal-cord-injured rats and normal rats in the same manner as in Example 1-3 above.

spinal cord injury model [2] = assay: Toluidine blue (TB) staining and TEM imaging, re-myelination of spinal cord injury site; conditions: spinal cord injury model treated with KDS2010
Experimental: (§1) The animal models of spinal cord injury herein used were adult male Sprague-Dawley rats weighing 180 to 200 g, and the rats were anesthetized by intraperitoneal injection of ketamine. Laminectomy was conducted on the T9 portion to expose the spinal cord, the spinal cord was compressed for 10 seconds using a dedicated forceps (self-closed forceps, Germany) to induce spinal cord injury, and then the muscles and skin were sutured.
Specifically, the number of […], the number of cavities and a g-ratio were measured through toluidine blue (TB) staining and TEM imaging.

[3] = tested on: spinal cord-injured rats and normal rats; assay: Basso-Beattie-Bresnahan (BBB) locomotor rating behavior test
Experimental: as §1
(§2) Of the 50 spinal cord injury animal models in total, 5 were a non-drug-administered control group (Normal), 5 were a drug-administered control group (Normal/KDS2010), 20 were a non-drug-administered group subjected to spinal cord injury (SCI), and 20 were a drug-administered group subjected to spinal cord injury (SCI/KDS2010). 2 weeks after induction of spinal cord injury, a mixture of the drug and drinking water was administered at a dose of 10 mg/kg.
A motor function test was performed 10 times in total weekly for 10 weeks after spinal cord injury, and the recovery of hindlimb function in the animals was evaluated using the Basso-Beattie-Bresnahan (BBB) motor score. The BBB score is divided into 21 points in total, and is broadly classified into 3 steps. In the first recovery phase, the degree of the joint movement and whether or not the soles contact the floor was checked, in the second recovery phase, the degree of recovery of weighted gait was monitored, and in the final stage, the balance of the gait and the recovery of the tail were mainly observed. The neuropathic pain response test upon spinal cord injury was conducted through the measurement of a change in mechanical paw withdrawal using a dynamic plantar aesthesiometer and was conducted weekly for 3 weeks after the injury causing response to the soles. This test was conducted by applying a force of 0 to 50 g to the sole of the paw of the hindlimb using a needle with a diameter of 0.5 mm for 20 seconds. At this time, the force applied when the sole withdrawal occurred due to pain was measured.
A behavior test was performed using a Basso-Beattie-Bresnahan (BBB) locomotor rating system after administration of KDS2010 to spinal-cord-injured rats and normal rats in the same manner as in Example 1-3 above. The result of the behavior test was expressed as a BBB score.

spinal cord injury model [4] = assay: Immunofluorescence staining for macrophage marker CD68 and microglia marker Ibal; conditions: KDS2010-administered spinal cord injury model group
Experimental: as §1
When a spinal cord injury occurs, destroyed cells and cell clusters were observed inward from the injured site. These cells may cause an inflammatory reaction and interfere with regeneration from spinal cord injury. A test was conducted to investigate the effect of the drug KDS2010 on inflammatory reaction.
Specifically, the spinal cord injury model administered with KDS2010 was subjected to immunofluorescence staining to determine whether or not the cells were positive for the macrophage marker CD68 and the microglia marker Ibal.

[5] = tested on: spinal cord-injured rats and normal rats; assay: EC staining of the injured area (T9), myelination of spinal cord tissue
Experimental: as §1, §2
For EC staining (Eriochrome (Solochrome) cyanine staining), spinal cord tissue was obtained at 10 weeks after spinal cord injury, fixed with 4% paraformaldehyde, and dehydrated to perform freeze embedding. EC staining was performed on the injured area (thoracic vertebrae #9, T9) in 5 rats for the control group, 10 rats for the spinal cord-injured non-drug-administered group and 10 rats for the spinal cord-injured drug-administered group.
The EC staining is a staining method that can compare the areas of tissue and the myelinated part between groups because the myelinated part is stained in blue, whereas other nuclei, nerves, and non-myelinated parts appear in white.
EC staining was conducted on the injured area (thoracic vertebrae #9, T9) of the non-drug-administered control group, the drug-administered control group, the spinal cord-injured non-drug-administered group and the spinal cord-injured drug-administered group, in the same manner as in Example 1-4, and the results of myelinated parts were quantified.

spinal cord injury model [6] = assay: BrdU immunofluorescence staining of spinal nerves, formation of new nerve cells; conditions: spinal cord injury model treated with KDS2010; BrdU 50 mg/kg/day i.p.
Experimental: as §1
A test to determine whether or not treatment with KDS2010 has an effect of inducing differentiation of new nerve cells was conducted in order to investigate the effect of spinal cord regeneration.
Specifically, BrdU was administered at a dose of 50 mg/kg/day to test animals by i.p. injection one week before scarification, and spinal nerves were subjected to immunofluorescence staining and then observed.

[7] = SCI/KDS2010 vs SCI, 10 weeks after injury
[8] = drug-administered control group (Control/KDS2010), 10 weeks

## C[C@H](NCc1ccc(-c2ccc(C(F)(F)F)cc2)cc1)C(N)=O [KDS2010, (S)-2-(((4′-trifluoromethylbiphenyl-4-yl)methyl)amino)propanamide methanesulfonate]
[1]; SCI/KDS2010 vs SCI
  threshold value for pain compared to spinal cord-injured non-drug-administered group: significantly increased
[1]; drug-administered control group (Normal/KDS2010), normal rats
  threshold value for pain: high threshold value
Spinal cord injury model [2]
  number of cavities: rapidly decreased
  number of myelinated exons: recovered to an almost normal value
Spinal cord injury model [2]; normal range 0.79±0.0005
  g-ratio: within the normal range
[3]; SCI/KDS2010, last week (10 weeks after injury)
  gait and behavioral function in BBB test: balanced gait and restored behavioral function
[3]; SCI/KDS2010 vs SCI
  BBB score compared to spinal cord-injured group not administered with the drug: significantly improved
[3]; drug-administered control group (Normal/KDS2010), normal rats, 10 mg/kg in drinking water
  BBB score: 21 points
[3]; spinal cord-injured drug-administered group (SCI/KDS2010), 10 mg/kg in drinking water from 2 weeks after injury, starting at 5 weeks
  BBB score: ≥ 10 points
Spinal cord injury model [4]
  number of cells positive to CD68: significantly decreased
  number of cells positive to Ibal: significantly decreased
[5]; [7]
  total myelinated area compared to spinal cord-injured non-drug-administered group: increased
  total tissue area compared to spinal cord-injured non-drug-administered group: increased
[5]; [8]
  proportion of the total myelinated area to the total tissue area: large
  total myelinated area: large
  total tissue area: large
Spinal cord injury model [6]
  formation of new nerve cells: exhibited newly formed nerve cells
